Laboratory results reported in article PMC10709440, “High-throughput ligand profile characterization in novel cell lines expressing seven heterologous insect olfactory receptors for the detection of volatile plant biomarkers” (Scientific Reports, 2023).
Where two headings read alike, the source gives them in different places.

Tests used:
Drosophila OR85b = biological target: T1, Drosophila OR85b (Drosophila melanogaster, UniProt Q9VHQ7); experiment: Calcium ion fluorescence (GCaMP6) assay, OR85b stable HEK293 cell line; assay type: cell-based; details: for activation at 1 µM / activation at 10 µM / activation at 100 µM: HEK293, read-out: OR85b response (VUAA1-normalized response); for Average response / OR85b response (VUAA1-normalized) at 1 μM / OR85b response (VUAA1-normalized) at 10 μM / OR85b response (VUAA1-normalized) at 100 μM: OR85b cell line; for Average response: VUAA1-normalized response, mean of biological replicates; for OR85b response (VUAA1-normalized) at 1 μM: VOC concentration 1 μM; for OR85b response (VUAA1-normalized) at 10 μM: VOC concentration 10 μM; for OR85b response (VUAA1-normalized) at 100 μM: VOC concentration 100 μM
T1 construct: expressed in transfected cells
T1 sequence (Q9VHQ7 1-390): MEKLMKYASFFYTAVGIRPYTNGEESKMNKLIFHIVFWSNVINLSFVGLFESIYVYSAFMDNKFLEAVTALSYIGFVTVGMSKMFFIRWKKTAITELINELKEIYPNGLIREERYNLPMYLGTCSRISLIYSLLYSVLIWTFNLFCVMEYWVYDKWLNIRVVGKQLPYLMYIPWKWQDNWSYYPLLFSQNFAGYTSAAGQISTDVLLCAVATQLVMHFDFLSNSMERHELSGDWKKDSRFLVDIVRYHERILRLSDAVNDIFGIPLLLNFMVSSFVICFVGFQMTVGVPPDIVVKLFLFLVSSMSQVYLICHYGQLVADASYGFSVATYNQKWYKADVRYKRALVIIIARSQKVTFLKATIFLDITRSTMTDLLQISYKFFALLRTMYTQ
T1 sequence (Q9VNB5 1-486 partner): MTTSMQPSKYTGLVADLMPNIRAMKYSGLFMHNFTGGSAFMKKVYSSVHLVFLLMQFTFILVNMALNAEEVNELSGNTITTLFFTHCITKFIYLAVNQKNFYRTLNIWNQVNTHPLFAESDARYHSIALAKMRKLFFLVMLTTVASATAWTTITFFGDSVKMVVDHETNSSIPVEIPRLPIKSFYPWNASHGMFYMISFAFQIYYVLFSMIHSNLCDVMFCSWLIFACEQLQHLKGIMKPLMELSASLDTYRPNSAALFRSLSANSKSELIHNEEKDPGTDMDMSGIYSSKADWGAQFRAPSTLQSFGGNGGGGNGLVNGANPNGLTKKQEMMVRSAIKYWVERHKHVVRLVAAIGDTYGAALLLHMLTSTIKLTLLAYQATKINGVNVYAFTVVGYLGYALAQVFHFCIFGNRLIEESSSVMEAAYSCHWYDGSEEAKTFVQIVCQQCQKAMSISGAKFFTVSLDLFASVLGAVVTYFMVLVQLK
Procedure, shortened: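 Responses are VUAA1-normalized ΔF: each VOC-evoked calcium signal, (FMAX−F0)/F0 over 30 s after injection, divided by the same line's mean 50 µM VUAA1 response. Cells were doxycycline-induced HEK293 with GCaMP6 and the cognate Drosophila OR, in HEPES buffer pH 7.3; ligands tested 0.01–100 μM.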

OR10a = system: OR10a; parameters: method as in earlier work; details: DoOR database value, ref DoOR, cited from earlier work
OR13a = system: OR13a; parameters: method as in earlier work; details: DoOR database value, ref DoOR, cited from earlier work
OR47a = system: OR47a; parameters: method as in earlier work; details: DoOR database value, ref DoOR, cited from earlier work
OR49b = system: OR49b; parameters: method as in earlier work; details: DoOR database value, ref DoOR, cited from earlier work
OR71a = system: OR71a; parameters: method as in earlier work; details: DoOR database value, ref DoOR, cited from earlier work
OR85b = system: OR85b; parameters: method as in earlier work; details: DoOR database value, ref DoOR, cited from earlier work
OR98a = system: OR98a; parameters: method as in earlier work; details: DoOR database value, ref DoOR, cited from earlier work
[1] = ligand concentration 1 (unit not given), threshold 0.05, below shown as 0
[2] = ligand concentration 10 (unit not given), threshold 0.05, below shown as 0
[3] = ligand concentration 100 (unit not given), threshold 0.05, below shown as 0

Row | Compound | activation at 1 µM (Drosophila OR85b) [%] | activation at 10 µM (Drosophila OR85b) [%] | activation at 100 µM (Drosophila OR85b) [%] | Average response (Drosophila OR85b; cc. 1 µM) | Average response (Drosophila OR85b; cc. 10 µM) | Average response (Drosophila OR85b; cc. 100 µM) | DF norm AVERAGE OR85b (Drosophila OR85b; [1]) | DF norm AVERAGE OR85b (Drosophila OR85b; [2]) | DF norm AVERAGE OR85b (Drosophila OR85b; [3]) | OR10a DoOR response (OR10a) | OR13a DoOR response (OR13a) | OR47a DoOR response (OR47a) | OR49b DoOR response (OR49b) | OR71a DoOR response (OR71a) | OR85b DoOR response (OR85b) | OR98a DoOR response (OR98a) | also measured
1 | C=CCc1ccc(O)c(OC)c1 [eugenol] | 0 | 0 | 9 | 0.00 | 0.0188 | 0.09 | 0 | 0 | 0.09022 | 0.15 | 0.024 | -0.013 | 0.002 | 0.73 | 0.053 | 0.15 | 
2 | O=Cc1ccccc1 [benzaldehyde] | 6 | 0 | 0 | 0.06 | 0.00 | 0.00 | 0.06124 | 0 | 0 | 0.22 | 0.025 | 0.06 | 0.09 | 0.025 | 0.07 | 0.13 | 
3 | CCOC(=O)c1ccccc1 [ethyl benzoate] | 0 | 0 | 0 | 0.0211 | 0.0371 | 0.0138 | 0 | 0 | 0 | 0.68 | 0.043 | 0.06 | 0.002 | 0.19 | -0.014 | 0.78 | 
4 | C=CC(O)CCCCC (centres unmarked) [1-octen-3-ol] | 0 | 0 | 8 | 0.00 | 0.0043 | 0.08 |  |  |  | 0.019 | 0.78 | 0.25 | 0.016 | 0.09 | 0.53 | 0.58 | DF norm AVERAGE OR85b (Drosophila OR85b; concentration 1, normalized fluorescence change, values below 0.05 threshold given as 0): 0; DF norm AVERAGE OR85b (Drosophila OR85b; concentration 10, normalized fluorescence change, values below 0.05 threshold given as 0): 0; DF norm AVERAGE OR85b (Drosophila OR85b; concentration 100, normalized fluorescence change, values below 0.05 threshold given as 0): 0.08325
5 | CCCOC(C)=O [propyl acetate] |  |  |  | 0.0538 | 0.0361 | 0.00 | 0.05375 | 0 | 0 |  |  |  |  |  |  |  | OR85b response (VUAA1-normalized) at 1 μM (Drosophila OR85b): 0.0538; OR85b response (VUAA1-normalized) at 10 μM (Drosophila OR85b): 0.00; OR85b response (VUAA1-normalized) at 100 μM (Drosophila OR85b): 0.00; OR10a DoOR response (OR10a; OR10a): 0.18; OR13a DoOR response (OR13a; OR13a): 0.14; OR47a DoOR response (OR47a; OR47a): 0.68; OR49b DoOR response (OR49b; OR49b): 0.023; OR71a DoOR response (OR71a; OR71a): 0.04; OR85b DoOR response (OR85b; OR85b): 0.49; OR98a DoOR response (OR98a; OR98a): 0.50
6 | CCCC(=O)OCC [ethyl butyrate] | 0 | 0 | 0 | 0.00 | 0.0253 | 0.0224 | 0 | 0 | 0 | 0.025 | 0.11 | 0.26 | -0.002 | 0.046 | 0.21 | 0.25 | 
7 | CC1=CC[C@@H](C(C)(C)O)CC1 [alpha-terpineol] | 0 | 0 | 0 | 0.05 | 0.03 | 0.02 | 0 | 0 | 0 | -0.005 | 0.023 | 0.018 | 0.006 | 0.008 | 0.11 | 0.033 | 
8 | OCCc1ccccc1 [phenethyl alcohol] |  |  |  | 0.10 | 0.0758 | 0.04 | 0.09884 | 0.07579 | 0 |  |  |  |  |  |  |  | OR85b response (VUAA1-normalized) at 1 μM (Drosophila OR85b): 0.10; OR85b response (VUAA1-normalized) at 10 μM (Drosophila OR85b): 0.0758; OR85b response (VUAA1-normalized) at 100 μM (Drosophila OR85b): 0.00; OR10a DoOR response (OR10a; OR10a): 0.014; OR13a DoOR response (OR13a; OR13a): 0.12; OR47a DoOR response (OR47a; OR47a): 0.009; OR49b DoOR response (OR49b; OR49b): 0.09; OR71a DoOR response (OR71a; OR71a): 0.17; OR85b DoOR response (OR85b; OR85b): 0.006; OR98a DoOR response (OR98a; OR98a): -0.01
